Experimental data taken from patent publication US11166924B2, “N-methyl-d-aspartate receptor allosteric modulators and methods for their use” (Qingdao Primedicine Pharmaceutical Company, Ltd., priority 2016, dated 2021).

Tests used:
pCREB = pCREB levels in hippocampal and cortical tissue after i.v. injection; format: in vivo, rat; conditions: 1 mg/kg i.v., 1 h post-treatment
Description: Brain tissues or cultured cells were lysed on ice in the lysis buffer and then the solution was centrifuged at 14,000 rpm for 10 min at 4° C. Next, the supernatant was collected and protein concentrations were determined using a BCA protein assay kit (Thermo Scientific, 23227). Equal amount of protein samples were mixed with 4 times sample buffer, boiled at 100° C. for 5 min, and separated on 10% sodium dodecyl sulphate-polyacrylamide gel electrophoresis (SDS-PAGE). Proteins were then transferred to Immobilon-PTM polyvynilidene fluoride (PVDF) membranes (Bio-Rad, 162-0177). The membranes were blocked with 5% non-fat milk in Tris-buffered saline containing 0.1% Tween-20 (TBST) for 1 hour at room temperature, and then incubated overnight at 4° C. with primary antibody. After washing 3×5 min in TBST, protein was visualized in the Bio-Rad Imager using ECL Western blotting substrate (Pierce, 32016). For the detection of phospho-CREB, samples prepared in the same day were used. The polyvinylidene difluoride membrane (Millipore, Bedford, Mass., USA) was incubated with primary antibody against phospho-CREB (Ser133) (Cell Signaling Technology, Beverly, Mass.). […] The band density of each protein was quantified by the Bio-Rad Quantity One software and the relative optical density was analyzed relative to loading total-CREB on the same membrane. […]

hippocampal slices (LTP) = test: Long-term potentiation (LTP) in hippocampal slices; conditions: mouse hippocampal slices; FIG. 19
Description: 6-8 week old C57/Bl6 mice or rats underwent cervical dislocation followed by decapitation. The brain was immediately transferred to an ice cold NMDG-based cutting solution consisting of: (in mM): 120 NMDG, 2.5 KCl, 1.2 NaH2PO4, 25 NaHCO3, 1.0 CaCl2, 7.0 MgCl2, 2.4 Na-pyruvate, 1.3 Na-ascorbate, 20 D-glucose with pH adjusted to 7.35 using HCl acid (unless stated, all chemicals and drugs were purchased from Sigma or BioShop, Canada). The hippocampus was dissected out and transverse hippocampal slices (400 μm) were obtained using a manual tissue chopper (Stoelting, Wood Dale, Ill., USA). Slices recovered in a heated (30° C.) incubating chamber for 1 hr which contained ACSF composed of (in mM): 124 NaCl, 3 KCl, 1.25 NaH2PO4, 1 MgSO47H2O, 2 CaCl2), 26 NaHCO3 and 15 D-glucose which was bubbled continuously with carbogen (95% O2/5% CO2) (pH to 7.3). After 30 additional minutes at room temperature, slices were transferred to a submerged recording chamber and were perfused continuously with carbogenated ACSF (2-3 ml/min). Whole-cell recordings of CA1 pyramidal neurons were performed using the “blind” method with a MultiClamp 700B amplifier. EPSCs (excitatory post synaptic currents) were elicited by stimulating the SC pathway. For isolation of NMDAR currents, cells were voltage clamped at +40 mV. […]

GluN1/GluN2A^M112I = molecular target: T1, GluN1/GluN2A^M112I (Rattus norvegicus, UniProt P35439+Q00959, M112I); test: Patch clamp in HEK293 cells expressing mutant GluN1/GluN2A M112I; format: cell-based
T1 construct: expressed in transfected cells; host or cells: HEK293
Description: Whole cell patch-clamp recordings were performed under voltage-clamp mode using an Axopatch 200B or 1D patch-clamp amplifier (Molecular Devices). Whole-cell currents were recorded at a holding potential of −60 mV unless indicated elsewhere, and signals were filtered at 2 kHz, digitized at 10 kHz (Digidata 1322A). Recording pipettes (3-5 MΩ) were filled with intracellular solution containing (mM): CsCl 140, HEPES 10, Mg-ATP 4, QX-314 5, pH 7.20; osmolarity, 290-295 mOsm. BAPTA (10 mM) was added in the intracellular solution (unless otherwise specified). The coverslips were continuously superfused with extracellular solution containing (mM): NaCl 140, KCl 5.4, HEPES 10, CaCl2 1.3, glucose 20, pH 7.4; osmolarity, 305-315 mOsm. NMDA-induced currents were applied by NMDA through perfusion fast-step (Warner Instruments). With perfusion fast-step system, NMDA application was achieved by using a two-square barrel glass tubing and depending on the age of the cultured neurons, CNQX (10 μM), TTX (0.5 μM) or BIC (10 μM) were added in the extracellular solution to minimize the activation of ionotropic glutamate receptors and voltage-gated sodium channels, respectively. All experiments were performed at room temperature. Recordings from at least six HEK293 cells/neurons were performed for all active compounds. […]

T1 sequence (Q00959 23-1464 M112I, other chains not shown): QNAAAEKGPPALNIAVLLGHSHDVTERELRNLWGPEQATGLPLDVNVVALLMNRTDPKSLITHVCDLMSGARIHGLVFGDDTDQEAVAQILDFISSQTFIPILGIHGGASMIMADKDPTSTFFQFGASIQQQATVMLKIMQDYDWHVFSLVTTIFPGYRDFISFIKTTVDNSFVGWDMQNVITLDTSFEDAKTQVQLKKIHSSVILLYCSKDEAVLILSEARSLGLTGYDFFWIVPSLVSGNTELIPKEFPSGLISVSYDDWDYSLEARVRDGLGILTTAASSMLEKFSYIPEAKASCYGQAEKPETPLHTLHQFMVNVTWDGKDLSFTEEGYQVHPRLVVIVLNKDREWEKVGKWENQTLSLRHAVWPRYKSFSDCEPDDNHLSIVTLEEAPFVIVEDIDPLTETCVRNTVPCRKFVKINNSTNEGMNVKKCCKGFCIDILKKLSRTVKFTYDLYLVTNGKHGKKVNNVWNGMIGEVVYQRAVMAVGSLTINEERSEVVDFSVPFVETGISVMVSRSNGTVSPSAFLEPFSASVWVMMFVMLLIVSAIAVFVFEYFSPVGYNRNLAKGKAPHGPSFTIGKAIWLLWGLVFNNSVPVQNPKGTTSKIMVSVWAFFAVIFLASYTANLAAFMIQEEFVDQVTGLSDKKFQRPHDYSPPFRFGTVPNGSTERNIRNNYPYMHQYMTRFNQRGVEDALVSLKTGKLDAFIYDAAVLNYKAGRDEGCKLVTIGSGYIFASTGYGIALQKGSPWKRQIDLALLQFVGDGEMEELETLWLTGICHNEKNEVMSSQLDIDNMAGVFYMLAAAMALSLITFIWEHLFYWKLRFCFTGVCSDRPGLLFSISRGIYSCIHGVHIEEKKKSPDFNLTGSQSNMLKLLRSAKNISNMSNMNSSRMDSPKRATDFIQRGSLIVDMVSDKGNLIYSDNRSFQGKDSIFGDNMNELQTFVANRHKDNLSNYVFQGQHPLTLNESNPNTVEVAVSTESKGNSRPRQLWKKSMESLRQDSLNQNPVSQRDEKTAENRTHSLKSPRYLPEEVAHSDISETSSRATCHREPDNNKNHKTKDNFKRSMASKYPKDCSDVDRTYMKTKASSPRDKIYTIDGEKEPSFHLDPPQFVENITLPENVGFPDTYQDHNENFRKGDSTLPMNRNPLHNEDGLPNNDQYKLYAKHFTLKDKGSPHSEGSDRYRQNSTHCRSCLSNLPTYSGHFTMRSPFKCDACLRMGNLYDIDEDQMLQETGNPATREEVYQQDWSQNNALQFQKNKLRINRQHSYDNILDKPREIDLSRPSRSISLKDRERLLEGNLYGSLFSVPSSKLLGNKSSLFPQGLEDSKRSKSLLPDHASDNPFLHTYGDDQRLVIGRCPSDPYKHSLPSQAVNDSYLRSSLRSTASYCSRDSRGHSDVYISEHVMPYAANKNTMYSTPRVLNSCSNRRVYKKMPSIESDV

Compound: CCOc1cc(Cl)c(Cl)c(/C=N/NC(=O)c2ccccc2Br)c1O [Npam43, (E)-2-bromo-N′-(2,3-dichloro-5-ethoxy-6-hydroxybenzylidene)benzohydrazide]
- pCREB levels in hippocampal and cortical tissue (pCREB): elevated
- Induction of LTP (hippocampal slices (LTP)): can facilitate the induction of LTP
- Relative potentiation (GluN1/GluN2A^M112I; Table 3): 255 ± 19%
- Net Difference potentiation (GluN1/GluN2A^M112I; normalized to wild-type): +22.2 ± 0.94%
